In ChEMBL document CHEMBL5696442, “Discovery of type II inhibitors of TGFβ-activated kinase 1 (TAK1) and mitogen-activated protein kinase kinase kinase kinase 2 (MAP4K2)” (J Med Chem, 2015):
The source made the active and inactive calls. No cut-off for these calls is given here.

Tests used:
[1] = target: T1, Serine/threonine-protein kinase TBK1 (Homo sapiens) (UniProt Q9UHD2); experiment: Inhibition of TBK1 Lys2 labeling site in human Huh-7 cells at 1 uM by KiNativ Profiling analysis relative to control; type: cell-based
T1 sequence (whole entry): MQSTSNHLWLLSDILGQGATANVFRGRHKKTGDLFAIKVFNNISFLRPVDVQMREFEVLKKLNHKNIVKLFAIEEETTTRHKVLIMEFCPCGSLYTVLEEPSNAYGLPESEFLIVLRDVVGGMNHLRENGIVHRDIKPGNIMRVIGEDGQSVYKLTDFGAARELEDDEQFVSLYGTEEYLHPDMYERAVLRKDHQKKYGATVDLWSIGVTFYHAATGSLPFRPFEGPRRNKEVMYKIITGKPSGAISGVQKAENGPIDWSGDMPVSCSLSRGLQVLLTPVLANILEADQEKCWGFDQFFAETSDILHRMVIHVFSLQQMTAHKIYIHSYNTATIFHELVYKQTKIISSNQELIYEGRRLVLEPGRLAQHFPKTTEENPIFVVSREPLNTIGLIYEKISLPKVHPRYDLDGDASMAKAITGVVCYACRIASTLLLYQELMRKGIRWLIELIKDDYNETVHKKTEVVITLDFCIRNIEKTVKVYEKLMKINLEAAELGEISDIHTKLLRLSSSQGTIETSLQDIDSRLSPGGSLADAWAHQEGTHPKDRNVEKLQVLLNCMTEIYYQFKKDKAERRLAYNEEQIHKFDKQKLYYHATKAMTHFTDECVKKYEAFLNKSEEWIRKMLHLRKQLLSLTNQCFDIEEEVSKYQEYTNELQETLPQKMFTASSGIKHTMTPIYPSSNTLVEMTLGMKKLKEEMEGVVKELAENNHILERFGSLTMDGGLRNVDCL

[2] = target: T2, Eukaryotic elongation factor 2 kinase (Homo sapiens) (UniProt O00418); experiment: Inhibition of eEF2K ATP labeling site in human Huh-7 cell lysate at 1 uM by KiNativ Profiling analysis relative to control; type: subcellular
T2 sequence (whole entry): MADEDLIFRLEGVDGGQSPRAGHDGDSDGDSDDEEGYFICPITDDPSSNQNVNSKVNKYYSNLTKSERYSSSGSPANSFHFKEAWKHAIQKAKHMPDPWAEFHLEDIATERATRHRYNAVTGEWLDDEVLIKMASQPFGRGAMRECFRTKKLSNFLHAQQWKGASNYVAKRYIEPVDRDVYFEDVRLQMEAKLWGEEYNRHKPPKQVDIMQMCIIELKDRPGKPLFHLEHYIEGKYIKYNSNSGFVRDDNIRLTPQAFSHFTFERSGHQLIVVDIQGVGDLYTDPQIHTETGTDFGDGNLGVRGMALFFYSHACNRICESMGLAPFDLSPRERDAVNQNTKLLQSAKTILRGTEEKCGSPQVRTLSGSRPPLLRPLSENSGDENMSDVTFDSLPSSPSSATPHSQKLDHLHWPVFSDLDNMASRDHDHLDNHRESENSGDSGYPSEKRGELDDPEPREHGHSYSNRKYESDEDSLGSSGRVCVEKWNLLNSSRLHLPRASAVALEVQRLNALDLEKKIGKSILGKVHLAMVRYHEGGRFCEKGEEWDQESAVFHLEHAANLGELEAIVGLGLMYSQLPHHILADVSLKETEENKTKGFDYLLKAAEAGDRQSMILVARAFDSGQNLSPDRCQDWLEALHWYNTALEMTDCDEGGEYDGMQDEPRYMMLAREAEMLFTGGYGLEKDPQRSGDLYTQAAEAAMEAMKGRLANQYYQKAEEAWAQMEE

[3] = target: MAP/microtubule affinity-regulating kinase 3 (Homo sapiens) (UniProt P27448); experiment: Inhibition of MARK3 Lys2 labeling site in human Huh-7 cell lysate at 1 uM by KiNativ Profiling analysis relative to control; type: subcellular
[4] = Inhibition of p70S6K ATP labeling site in human Huh-7 cell lysate at 1 uM by KiNativ Profiling analysis relative to control; conditions: condition cancer
[5] = target: Serine/threonine-protein kinase Nek7 (Homo sapiens) (UniProt Q8TDX7); experiment: Inhibition of NEK7 Lys2 labeling site harbouring VMHRDIKPANVFITATGVVK in human Huh-7 cells at 1 uM by KiNativ Profiling analysis relative to control; type: cell-based
Serine/threonine-protein kinase Nek7 (Homo sapiens), sequence (Q8TDX7 whole entry, looked up): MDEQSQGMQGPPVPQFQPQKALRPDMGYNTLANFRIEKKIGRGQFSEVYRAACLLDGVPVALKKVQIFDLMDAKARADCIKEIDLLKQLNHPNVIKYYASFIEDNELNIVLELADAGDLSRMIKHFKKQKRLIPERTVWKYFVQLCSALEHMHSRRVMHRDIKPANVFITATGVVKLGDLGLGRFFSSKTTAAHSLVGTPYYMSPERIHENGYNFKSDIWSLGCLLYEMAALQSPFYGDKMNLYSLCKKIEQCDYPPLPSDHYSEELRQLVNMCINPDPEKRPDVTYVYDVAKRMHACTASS

[6] = target: Serine/threonine-protein kinase ATR (Homo sapiens) (UniProt Q13535); experiment: Inhibition of ATR in human Huh-7 cell lysate at 1 uM by KiNativ Profiling analysis relative to control; type: subcellular
Serine/threonine-protein kinase ATR (Homo sapiens), sequence (Q13535 whole entry, looked up): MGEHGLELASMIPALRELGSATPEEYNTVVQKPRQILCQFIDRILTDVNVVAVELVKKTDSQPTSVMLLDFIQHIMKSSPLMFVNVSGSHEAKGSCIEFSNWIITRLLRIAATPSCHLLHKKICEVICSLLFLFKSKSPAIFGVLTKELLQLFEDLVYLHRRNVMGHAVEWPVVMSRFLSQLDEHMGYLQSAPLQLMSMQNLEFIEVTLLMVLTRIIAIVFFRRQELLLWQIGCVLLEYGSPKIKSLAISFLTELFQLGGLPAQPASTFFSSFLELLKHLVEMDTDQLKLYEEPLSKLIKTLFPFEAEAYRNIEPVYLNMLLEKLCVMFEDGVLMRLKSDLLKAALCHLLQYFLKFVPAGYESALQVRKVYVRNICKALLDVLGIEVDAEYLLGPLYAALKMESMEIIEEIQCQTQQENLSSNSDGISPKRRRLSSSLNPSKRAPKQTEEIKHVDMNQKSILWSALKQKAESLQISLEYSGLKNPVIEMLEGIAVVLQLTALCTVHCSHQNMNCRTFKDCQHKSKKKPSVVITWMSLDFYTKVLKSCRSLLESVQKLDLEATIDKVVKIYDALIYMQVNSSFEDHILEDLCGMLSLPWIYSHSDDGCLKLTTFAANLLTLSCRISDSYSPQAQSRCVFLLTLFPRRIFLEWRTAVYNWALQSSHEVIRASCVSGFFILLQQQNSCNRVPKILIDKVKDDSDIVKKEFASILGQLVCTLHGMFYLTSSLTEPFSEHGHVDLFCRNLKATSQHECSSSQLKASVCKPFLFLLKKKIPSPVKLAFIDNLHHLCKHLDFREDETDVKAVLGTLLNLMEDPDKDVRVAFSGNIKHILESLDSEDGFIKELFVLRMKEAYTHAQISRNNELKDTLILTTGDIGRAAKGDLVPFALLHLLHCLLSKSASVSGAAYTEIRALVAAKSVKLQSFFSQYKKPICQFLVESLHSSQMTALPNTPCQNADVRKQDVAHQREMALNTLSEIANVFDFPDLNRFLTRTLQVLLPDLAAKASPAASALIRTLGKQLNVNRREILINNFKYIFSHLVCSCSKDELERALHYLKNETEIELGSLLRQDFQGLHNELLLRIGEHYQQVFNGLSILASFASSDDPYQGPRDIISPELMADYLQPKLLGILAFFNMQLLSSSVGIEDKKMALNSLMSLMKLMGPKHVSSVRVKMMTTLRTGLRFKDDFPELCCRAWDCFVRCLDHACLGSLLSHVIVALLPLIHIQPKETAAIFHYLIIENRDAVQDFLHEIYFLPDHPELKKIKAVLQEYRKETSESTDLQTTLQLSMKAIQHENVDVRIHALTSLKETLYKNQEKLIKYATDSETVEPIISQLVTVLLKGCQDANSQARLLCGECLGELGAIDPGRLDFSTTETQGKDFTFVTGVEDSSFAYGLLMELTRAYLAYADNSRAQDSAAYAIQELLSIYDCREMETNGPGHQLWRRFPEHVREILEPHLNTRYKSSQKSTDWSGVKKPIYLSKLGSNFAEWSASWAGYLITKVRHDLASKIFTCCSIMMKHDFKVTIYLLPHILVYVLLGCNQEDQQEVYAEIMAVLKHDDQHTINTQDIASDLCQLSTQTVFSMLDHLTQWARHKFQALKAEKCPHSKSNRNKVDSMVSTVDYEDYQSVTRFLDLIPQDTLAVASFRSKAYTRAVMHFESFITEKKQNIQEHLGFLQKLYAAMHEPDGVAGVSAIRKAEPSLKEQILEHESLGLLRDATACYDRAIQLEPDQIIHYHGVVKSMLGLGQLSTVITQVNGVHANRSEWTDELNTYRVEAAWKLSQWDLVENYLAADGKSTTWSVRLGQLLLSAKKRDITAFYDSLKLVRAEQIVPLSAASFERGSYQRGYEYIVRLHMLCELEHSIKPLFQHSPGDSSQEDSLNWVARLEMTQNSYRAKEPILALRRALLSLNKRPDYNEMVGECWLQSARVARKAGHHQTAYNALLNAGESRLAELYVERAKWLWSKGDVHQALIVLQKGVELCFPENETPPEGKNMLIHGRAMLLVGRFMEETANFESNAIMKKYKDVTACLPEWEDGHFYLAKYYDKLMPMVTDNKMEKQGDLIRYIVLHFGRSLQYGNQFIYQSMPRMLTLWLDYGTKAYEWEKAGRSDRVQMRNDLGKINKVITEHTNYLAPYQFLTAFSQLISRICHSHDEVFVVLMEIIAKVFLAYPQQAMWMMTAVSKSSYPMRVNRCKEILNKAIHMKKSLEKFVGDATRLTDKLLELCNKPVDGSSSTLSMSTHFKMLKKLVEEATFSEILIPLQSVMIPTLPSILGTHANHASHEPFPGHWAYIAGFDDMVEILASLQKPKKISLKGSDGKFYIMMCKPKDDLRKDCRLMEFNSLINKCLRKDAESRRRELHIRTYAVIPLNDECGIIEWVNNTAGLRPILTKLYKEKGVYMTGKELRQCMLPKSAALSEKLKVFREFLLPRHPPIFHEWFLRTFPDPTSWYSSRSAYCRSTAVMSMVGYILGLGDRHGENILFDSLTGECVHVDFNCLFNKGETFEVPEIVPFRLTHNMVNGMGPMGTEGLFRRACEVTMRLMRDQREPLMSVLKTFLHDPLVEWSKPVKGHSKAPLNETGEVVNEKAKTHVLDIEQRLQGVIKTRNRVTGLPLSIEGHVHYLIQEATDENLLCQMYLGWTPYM

[7] = target: Cyclin-dependent kinase 2 (Homo sapiens) (UniProt P24941); experiment: Inhibition of CDK2 K2 labeling site in human Huh-7 cells at 1 uM by KiNativ Profiling analysis relative to control; type: cell-based
[8] = system: Phosphatidylinositol 4,5-bisphosphate 3-kinase catalytic subunit alpha isoform (Homo sapiens), P42336 [E545K]; experiment: Inhibition of PIK3CA E545K mutant (unknown origin) at 10 uM by Ambit Kinomescan binding assay
Phosphatidylinositol 4,5-bisphosphate 3-kinase catalytic subunit alpha isoform (Homo sapiens), P42336 [E545K], sequence (P42336 whole entry E545K, canonical isoform): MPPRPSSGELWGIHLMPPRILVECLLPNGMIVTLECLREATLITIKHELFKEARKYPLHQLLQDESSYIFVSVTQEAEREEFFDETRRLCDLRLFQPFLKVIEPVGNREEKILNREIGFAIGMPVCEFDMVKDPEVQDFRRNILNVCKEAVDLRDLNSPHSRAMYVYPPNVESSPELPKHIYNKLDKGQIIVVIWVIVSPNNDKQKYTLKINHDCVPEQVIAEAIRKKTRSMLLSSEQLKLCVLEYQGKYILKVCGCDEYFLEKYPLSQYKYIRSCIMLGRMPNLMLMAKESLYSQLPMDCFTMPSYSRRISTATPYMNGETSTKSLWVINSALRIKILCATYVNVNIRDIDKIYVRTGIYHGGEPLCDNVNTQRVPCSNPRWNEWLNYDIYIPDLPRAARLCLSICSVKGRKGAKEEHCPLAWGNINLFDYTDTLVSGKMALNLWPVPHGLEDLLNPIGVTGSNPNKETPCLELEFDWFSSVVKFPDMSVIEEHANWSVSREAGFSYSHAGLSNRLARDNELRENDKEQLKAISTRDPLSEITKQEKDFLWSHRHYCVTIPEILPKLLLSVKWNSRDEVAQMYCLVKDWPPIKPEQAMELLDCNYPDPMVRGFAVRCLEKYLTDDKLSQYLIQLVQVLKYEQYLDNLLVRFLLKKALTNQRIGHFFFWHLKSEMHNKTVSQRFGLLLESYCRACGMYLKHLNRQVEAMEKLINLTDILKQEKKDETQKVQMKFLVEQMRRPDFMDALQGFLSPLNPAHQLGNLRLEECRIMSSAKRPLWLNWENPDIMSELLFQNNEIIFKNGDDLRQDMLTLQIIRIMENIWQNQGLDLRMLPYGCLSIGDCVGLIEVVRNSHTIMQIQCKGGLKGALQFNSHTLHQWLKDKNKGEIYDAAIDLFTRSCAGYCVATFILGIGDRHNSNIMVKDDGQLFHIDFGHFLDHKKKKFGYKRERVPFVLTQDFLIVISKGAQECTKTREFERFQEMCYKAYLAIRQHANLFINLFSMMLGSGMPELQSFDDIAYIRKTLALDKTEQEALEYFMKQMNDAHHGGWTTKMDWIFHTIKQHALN

[9] = target: Glycogen synthase kinase-3 alpha (Homo sapiens) (UniProt P49840); experiment: Inhibition of GSK3A (unknown origin) at 10 uM by Ambit Kinomescan binding assay
Glycogen synthase kinase-3 alpha (Homo sapiens), sequence (P49840 2-483 limits assumed): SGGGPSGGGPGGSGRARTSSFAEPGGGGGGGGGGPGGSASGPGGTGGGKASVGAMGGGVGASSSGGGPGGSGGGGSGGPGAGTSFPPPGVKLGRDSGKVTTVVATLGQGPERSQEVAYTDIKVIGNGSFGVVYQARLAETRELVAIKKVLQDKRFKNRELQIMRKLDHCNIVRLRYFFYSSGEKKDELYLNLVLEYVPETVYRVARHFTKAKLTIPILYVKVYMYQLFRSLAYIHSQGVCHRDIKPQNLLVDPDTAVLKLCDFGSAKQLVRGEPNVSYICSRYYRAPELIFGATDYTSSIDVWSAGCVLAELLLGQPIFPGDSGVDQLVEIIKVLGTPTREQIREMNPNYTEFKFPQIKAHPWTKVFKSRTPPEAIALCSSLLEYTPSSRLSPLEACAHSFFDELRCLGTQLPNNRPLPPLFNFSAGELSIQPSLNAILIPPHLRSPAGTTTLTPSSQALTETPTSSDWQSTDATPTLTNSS

[10] = target: Mitogen-activated protein kinase kinase kinase kinase 5 (Homo sapiens) (UniProt Q9Y4K4); experiment: Inhibition of MAP4K5 (unknown origin) at 1 uM by Ambit Kinomescan binding assay relative to control; values are per cent of control
[11] = target: Mitogen-activated protein kinase kinase kinase 10 (Homo sapiens) (UniProt Q02779); experiment: Inhibition of MLK2 (unknown origin) at 1 uM by Ambit Kinomescan binding assay relative to control; values are per cent of control

## CNc1cc(Oc2cc(C(=O)Nc3cc(N4CCN(C)CC4)cc(C(F)(F)F)c3)ccc2C)ncn1
[1]
  inhibition: 17.7%
[2]
  inhibition: -3.5%
[3]
  inhibition: -4.1%
[4]
  inhibition at 1 µM: 2.8%
[5]
  inhibition: 6.9%
[6]
  inhibition: 22.6%

## CCN1CCN(Cc2ccc(NC(=O)c3ccc(C)c(Oc4ccnc5[nH]ccc45)c3)cc2C(F)(F)F)CC1
[7]
  inhibition: 5%
[8]
  inhibition: inactive
[9]
  inhibition: inactive

## CCN1CCN(Cc2ccc(NC(=O)c3ccc(C)c(/C=C/c4cnc5[nH]ccc5c4OC)c3)cc2C(F)(F)F)CC1
[10]
  residual activity: 7.2%
[11]
  residual activity: 53%
